Results: ChEMBL document CHEMBL3232730, “Design, synthesis and bioevaluation of N-trisubstituted pyrimidine derivatives as potent aurora A kinase inhibitors” (Eur J Med Chem, 2014)

What was measured:
HL-60 = assay: Antiproliferative activity against human HL60 cells assessed as cell viability after 72 hrs by CCK8 assay; type: functional, cell-based
[1] = Antiproliferative activity against human SKBR3 cells assessed as cell viability after 72 hrs by CCK8 assay; type: functional, cell-based, SK-BR-3
HCT-116 = assay: Antiproliferative activity against human HCT116 cells assessed as cell viability after 72 hrs by CCK8 assay; type: functional, cell-based
MDA-MB-231 = assay: Antiproliferative activity against human MDA-MB-231 cells assessed as cell viability after 72 hrs by CCK8 assay; type: functional, cell-based
A549 = assay: Antiproliferative activity against human A549 cells assessed as cell viability after 72 hrs by CCK8 assay; type: functional, cell-based; details: A549, 72 h
Aurora kinase A = molecular target: T1, Aurora kinase A (Homo sapiens, UniProt O14965); assay: Inhibition of Aurora A (unknown origin) using FAM-labeled peptide as substrate preincubated for 10 mins followed by substrate addition measured after 60 mins
T1 sequence (O14965 whole entry): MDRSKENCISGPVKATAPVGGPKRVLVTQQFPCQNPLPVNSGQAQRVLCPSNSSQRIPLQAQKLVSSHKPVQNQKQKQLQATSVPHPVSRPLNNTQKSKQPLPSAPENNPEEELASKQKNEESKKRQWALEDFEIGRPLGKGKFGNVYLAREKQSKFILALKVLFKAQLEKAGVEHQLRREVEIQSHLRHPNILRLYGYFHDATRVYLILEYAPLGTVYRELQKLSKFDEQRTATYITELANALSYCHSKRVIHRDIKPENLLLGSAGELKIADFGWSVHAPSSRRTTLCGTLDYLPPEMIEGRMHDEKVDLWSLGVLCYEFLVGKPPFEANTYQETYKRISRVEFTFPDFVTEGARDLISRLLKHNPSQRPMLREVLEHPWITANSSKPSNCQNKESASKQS

DU-145 = assay: Antiproliferative activity against human DU145 cells assessed as cell viability after 72 hrs by CCK8 assay; type: functional, cell-based
MCF7 = assay: Antiproliferative activity against human MCF7 cells assessed as cell viability after 72 hrs by CCK8 assay; type: functional, cell-based
HeLa = assay: Antiproliferative activity against human HeLa cells assessed as cell viability after 72 hrs by CCK8 assay; type: functional, cell-based
U-937 = assay: Antiproliferative activity against human U937 cells assessed as cell viability after 72 hrs by CCK8 assay; type: functional, cell-based
PC-3 = assay: Antiproliferative activity against human PC3 cells assessed as cell viability after 72 hrs by CCK8 assay; type: functional, cell-based
[2] = Antiproliferative activity against human MOLT4 cells assessed as cell viability after 72 hrs by CCK8 assay; type: functional, cell-based, MOLT-4
A-431 = assay: Antiproliferative activity against human A431 cells assessed as cell viability after 72 hrs by CCK8 assay; type: functional, cell-based
[3] = Antiproliferative activity against human PANC1 cells assessed as cell viability after 72 hrs by CCK8 assay; type: functional, cell-based; details: PANC-1, 72 h
K562 = assay: Antiproliferative activity against human K562 cells assessed as cell viability after 72 hrs by CCK8 assay; type: functional, cell-based
NCI-N87 = assay: Antiproliferative activity against human NCI-N87 cells assessed as cell viability after 72 hrs by CCK8 assay; type: functional, cell-based
[4] = Homo sapiens, HL-60, 72 h, read-out: IC50
[5] = Homo sapiens, SK-BR-3, 72 h, read-out: IC50
[6] = Homo sapiens, HCT-116, 72 h, read-out: IC50
[7] = Homo sapiens, MDA-MB-231, 72 h, read-out: IC50
[8] = Homo sapiens, DU-145, 72 h, read-out: IC50
[9] = Homo sapiens, MCF7, 72 h, read-out: IC50
[10] = Homo sapiens, HeLa, 72 h, read-out: IC50
[11] = Homo sapiens, U-937, 72 h, read-out: IC50
[12] = Homo sapiens, PC-3, 72 h, read-out: IC50
[13] = Homo sapiens, MOLT-4, 72 h, read-out: IC50
[14] = Homo sapiens, A-431, 72 h, read-out: IC50
[15] = Homo sapiens, K562, 72 h, read-out: IC50
[16] = Homo sapiens, NCI-N87, 72 h, read-out: IC50

Row | SMILES | IC50 (A549) [nM] | IC50 (Aurora kinase A) [nM] | IC50 [3] [nM] | IC50 (HL-60; [4]) [nM] | IC50 [1, 5] [nM] | IC50 (HCT-116; [6]) [nM] | IC50 (MDA-MB-231; [7]) [nM] | IC50 (DU-145; [8]) [nM] | IC50 (MCF7; [9]) [nM] | IC50 (HeLa; [10]) [nM] | IC50 (U-937; [11]) [nM] | IC50 (PC-3; [12]) [nM] | IC50 [2, 13] [nM] | IC50 (A-431; [14]) [nM] | IC50 (K562; [15]) [nM] | IC50 (NCI-N87; [16]) [nM] | other results
1 | Cc1cc(Nc2cc(N3CCN(C)CC3)nc(Nc3ccc(C(=O)O)cc3)n2)n[nH]1 | 19700 | 32 | 39300 |  |  |  |  |  |  |  |  |  |  |  |  |  | IC50 (HL-60; hl-60): Not Active; IC50 ([1]; sk-br-3): Not Active; IC50 (HCT-116; hct-116): Not Active; IC50 (MDA-MB-231; mda-mb-231): Not Active; IC50 (DU-145; du-145): Not Active; IC50 (MCF7; mcf7): Not Active; IC50 (HeLa; hela): Not Active; IC50 (U-937; u-937): Not Active; IC50 (PC-3; pc-3): Not Active; IC50 ([2]; molt-4): Not Active; IC50 (A-431; a-431): Not Active; IC50 (K562; k562): Not Active; IC50 (NCI-N87; nci-n87): Not Active
2 | Cc1cc(Nc2cc(N3CCN(C)CC3)nc(Nc3ccc(Cl)cc3)n2)n[nH]1 | 631 | 13 | 455 | 83.4 | 1610 | 1370 | 138 | 2240 | 840 | 619 | 55.4 | 1480 | 53.1 | 162 | 192 | 7470 | 
3 | CC(=O)Nc1ccc(Nc2nc(Nc3cc(C)[nH]n3)cc(N3CCN(C)CC3)n2)cc1 |  | 118 |  |  |  |  |  |  |  |  |  |  |  |  |  |  | 
4 | Cc1cc(Nc2cc(N3CCN(C)CC3)nc(Nc3ccc(C#N)cc3)n2)n[nH]1 | 785 | 8 | 435 | 21.8 | 883 | 650 | 75.7 | 1270 | 372 | 331 | 9.03 | 977 | 13.6 | 140 | 58.1 | 5780 | 
5 | COC(=O)c1ccc(Nc2nc(Nc3cc(C)[nH]n3)cc(N3CCN(S(C)(=O)=O)CC3)n2)cc1 | 1730 | 34 | 1220 | 604 | 5850 | 1240 | 716 | 791 | 1990 | 1700 | 233 | 2060 | 215 | 1610 | 556 | 10900 | 
6 | COC(=O)c1ccc(Nc2nc(Nc3cc(C)[nH]n3)cc(N3CCN(S(=O)(=O)c4ccc(C)cc4)CC3)n2)cc1 |  | 573 |  |  |  |  |  |  |  |  |  |  |  |  |  |  | 
7 | COC(=O)c1ccc(Nc2nc(NCCN3CCOCC3)cc(Nc3cc(C)[nH]n3)n2)cc1 |  | 72 |  |  |  |  |  |  |  |  |  |  |  |  |  |  | 
8 | Cc1cc(Nc2cc(N3CCN(C)CC3)nc(Nc3ccc(N4CCOCC4)cc3)n2)n[nH]1 |  | 112 |  |  |  |  |  |  |  |  |  |  |  |  |  |  | 
9 | COC(=O)c1ccc(Nc2nc(Nc3cc(C)[nH]n3)cc(N3CCNCC3)n2)cc1 |  | 135 |  |  |  |  |  |  |  |  |  |  |  |  |  |  | 
10 | CNC(=O)c1ccc(Nc2nc(Nc3cc(C)[nH]n3)cc(N3CCN(C)CC3)n2)cc1 |  | 101 |  |  |  |  |  |  |  |  |  |  |  |  |  |  | 
11 | Cc1cc(Nc2cc(N3CCN(C)CC3)nc(Sc3ccc(NC(=O)C4CC4)cc3)n2)n[nH]1 [TOZASERTIB] | 3050 |  | 4130 | 38.2 | 9990 | 4320 | 127 | 400 | 1300 | 2930 | 36 | 5810 | 21.2 | 240 | 79.1 | 11600 | 
12 | Cc1cc(Nc2cc(N3CCN(C)CC3)nc(Nc3cccc([N+](=O)[O-])c3)n2)n[nH]1 | 926 | 16 | 457 | 90.9 | 2180 | 1820 | 114 | 1340 | 642 | 1110 | 25.2 | 962 | 26 | 166 | 138 | 4320 | 
13 | Cc1cc(Nc2cc(N3CCN(C)CC3)nc(Nc3ccc(N4CC(=O)N(C5CC5)CC4=O)cc3)n2)n[nH]1 |  | 549 |  |  |  |  |  |  |  |  |  |  |  |  |  |  | 
14 | COC(=O)c1ccc(CNc2nc(Nc3cc(C)[nH]n3)cc(N3CCOCC3)n2)cc1 |  | 97 |  |  |  |  |  |  |  |  |  |  |  |  |  |  | 
15 | Cc1cc(Nc2cc(N3CCN(C)CC3)nc(Nc3ccc(S(N)(=O)=O)cc3)n2)n[nH]1 | 16700 | 5 | 8760 | 213 | 15900 | 12200 | 1210 | 926 | 2680 | 3060 | 100 | 4380 | 648 | 2760 | 1430 | 24000 | 
16 | Cc1cc(Nc2cc(N3CCN(C)CC3)nc(Nc3ccc([N+](=O)[O-])cc3)n2)n[nH]1 | 723 | 12 | 442 | 69.8 | 437 | 1630 | 84.4 | 1200 | 424 | 331 | 43.3 | 1090 | 18.1 | 150 | 137 | 3880 | 
17 | COC(=O)c1ccc(Nc2nc(NCCN3CCCCC3)cc(Nc3cc(C)[nH]n3)n2)cc1 |  | 228 |  |  |  |  |  |  |  |  |  |  |  |  |  |  | 
18 | Cc1cc(Nc2cc(N3CCOCC3)nc(Nc3ccc([N+](=O)[O-])cc3)n2)n[nH]1 | 1040 | 11 | 580 | 1600 | 960 | 2600 | 204 | 631 | 1070 | 607 | 210 | 967 | 60.7 | 331 | 355 | 17500 | 
19 | Cc1cc(Nc2cc(N3CCN(C)CC3)nc(Nc3ccccc3Cl)n2)n[nH]1 |  | 147 |  |  |  |  |  |  |  |  |  |  |  |  |  |  | 
20 | COC(=O)c1ccc(Nc2nc(Nc3cc(C)[nH]n3)cc(N3C[C@@H](C)O[C@@H](C)C3)n2)cc1 |  | 113 |  |  |  |  |  |  |  |  |  |  |  |  |  |  | 
